Several values for one entry are separate records, joined by “and”; a condition that tells them apart may be missing. Equal values may be shown once. Inconclusive results and toxic doses are left out. How the source made its calls: active means survival T/C of 150% or more; inactive means T/C below 125% in these data.
Test system: BDF1 mice, P388 leukemia ip, median survival T/C
Experiment: NCI In Vivo Anticancer Drug Screen. Data for tumor model P388 Leukemia (intraperitoneal) in B6D2F1 (BDF1) mice
Details: endpoint: median survival time, higher = longer survival
In short: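 Reported as T/C, where T is the survival measurement in dosed animals and C the same measurement in vehicle controls.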

[1] = dose: 100.0 mg/kg/injection, schedule: Q01DX001 (ip), vehicle: saline with Tween-80
[2] = dose: 200.0 mg/kg/injection, schedule: Q01DX001 (ip), vehicle: saline with Tween-80
[3] = dose: 400.0 mg/kg/injection, schedule: Q01DX001 (ip), vehicle: saline with Tween-80
[4] = dose: 50.0 mg/kg/injection, schedule: Q01DX009 (ip), vehicle: saline with Tween-80
[5] = dose: 100.0 mg/kg/injection, schedule: Q01DX009 (ip), vehicle: saline with Tween-80
[6] = dose: 200.0 mg/kg/injection, schedule: Q01DX009 (ip), vehicle: saline with Tween-80
[7] = dose: 400.0 mg/kg/injection, schedule: Q01DX009 (ip), vehicle: saline with Tween-80
[8] = dose: 50.0 mg/kg/injection, schedule: Q01DX009 (ip), vehicle: saline
[9] = dose: 6.25 mg/kg/injection, schedule: Q01DX009 (ip), vehicle: saline
[10] = dose: 12.5 mg/kg/injection, schedule: Q01DX009 (ip), vehicle: saline
[11] = dose: 25.0 mg/kg/injection, schedule: Q01DX009 (ip), vehicle: saline

Measured: T/C

COc1ccc(NC(=O)Nc2ccccc2F)cc1
inactive: [1] 95 % of control | [2] 95 % of control | [3] 95 % of control

COc1cc([N+](=O)[O-])cc(C=O)c1OC(=O)c1ccccc1
inactive: [4] 109 % of control | [5] 123 % of control

O=C1CC2OCC=C3CN4CCC56c7ccccc7N1C5C2C3CC46 (stereo not given) (tested in a mixture with another compound)
inactive: dose: 0.5 mg/kg/injection, schedule: Q04DX003 (ip), vehicle: saline + alcohol 95 % of control | dose: 1.0 mg/kg/injection, schedule: Q04DX003 (ip), vehicle: saline + alcohol 110 % of control

Cc1ccc(S(=O)(=O)Oc2ccc(-c3ccc(Br)cc3)cc2)cc1
inactive: [4] 96 % of control | [5] 96 % of control | [6] 101 % of control | [7] 92 % of control

O=[N+]([O-])c1cccc(CS(=O)(=O)c2ccccc2)c1-c1c(CS(=O)(=O)c2ccccc2)cccc1[N+](=O)[O-]
inactive: dose: 100.0 mg/kg/injection, schedule: Q04DX003 (ip), vehicle: saline sonified 95 % of control | dose: 200.0 mg/kg/injection, schedule: Q04DX003 (ip), vehicle: saline sonified 100 % of control | dose: 400.0 mg/kg/injection, schedule: Q04DX003 (ip), vehicle: saline sonified 86 % of control

CCOC1=NCCCCC1
inactive: [8] 98 % of control | dose: 100.0 mg/kg/injection, schedule: Q01DX009 (ip), vehicle: saline 95 % of control | dose: 200.0 mg/kg/injection, schedule: Q01DX009 (ip), vehicle: saline 98 % of control | dose: 400.0 mg/kg/injection, schedule: Q01DX009 (ip), vehicle: saline 98 % of control

CC(C)OC(CCC#N)c1ccc(Cl)cc1 (stereo not given)
inactive: dose: 100.0 mg/kg/injection, schedule: Q04DX003 (ip), vehicle: other 95 % of control | dose: 400.0 mg/kg/injection, schedule: Q04DX003 (ip), vehicle: other 95 % of control

O=Cc1c2c(c(C=O)c3c1OCO3)OCO2
inactive: [1] 97 % of control | [2] 97 % of control | [3] 90 % of control

Cc1c(C)c2c(N)c3ccccc3nc2c2ccccc12
inactive: dose: 12.5 mg/kg/injection, schedule: Q01DX001 (ip), vehicle: saline with Tween-80 97 % of control | dose: 25.0 mg/kg/injection, schedule: Q01DX001 (ip), vehicle: saline with Tween-80 100 % of control and 117 % of control | dose: 50.0 mg/kg/injection, schedule: Q01DX001 (ip), vehicle: saline with Tween-80 105 % of control

CC(=O)OCC(CCn1ccc(=O)[nH]c1=O)COC(C)=O
inactive: [5] 90 % of control | dose: 100.0 mg/kg/injection, schedule: Q04DX003 (ip), vehicle: saline with Tween-80 98 % of control | [6] 100 % of control | dose: 200.0 mg/kg/injection, schedule: Q04DX003 (ip), vehicle: saline with Tween-80 98 % of control | [7] 90 % of control | dose: 400.0 mg/kg/injection, schedule: Q04DX003 (ip), vehicle: saline with Tween-80 100 % of control

Clc1cc(CBr)c(Cl)c(Cl)c1CBr
inactive: dose: 6.25 mg/kg/injection, schedule: Q01DX009 (ip), vehicle: Klucel (hydroxypropylcellulose) (HPC) 109 % of control | [9] 100 % of control | dose: 6.25 mg/kg/injection, schedule: Q04DX003 (ip), vehicle: saline sonified 95 % of control | dose: 12.5 mg/kg/injection, schedule: Q01DX009 (ip), vehicle: Klucel (hydroxypropylcellulose) (HPC) 109 % of control | [10] 103 % of control | dose: 12.5 mg/kg/injection, schedule: Q04DX003 (ip), vehicle: saline sonified 100 % of control | [11] 110 % of control | dose: 25.0 mg/kg/injection, schedule: Q04DX003 (ip), vehicle: saline sonified 100 % of control

O=C1OC(c2ccccc2)(c2ccccc2)c2ccccc21
inactive: dose: 45.0 mg/kg/injection, schedule: Q01DX009 (ip), vehicle: Klucel (hydroxypropylcellulose) (HPC) 100 % of control | dose: 65.0 mg/kg/injection, schedule: Q01DX009 (ip), vehicle: Klucel (hydroxypropylcellulose) (HPC) 90 % of control | dose: 150.0 mg/kg/injection, schedule: Q01DX009 (ip), vehicle: Klucel (hydroxypropylcellulose) (HPC) 90 % of control | dose: 200.0 mg/kg/injection, schedule: Q01DX009 (ip), vehicle: Klucel (hydroxypropylcellulose) (HPC) 90 % of control | dose: 400.0 mg/kg/injection, schedule: Q01DX009 (ip), vehicle: Klucel (hydroxypropylcellulose) (HPC) 86 % of control

CC(=O)N(C)N(Cc1ccc(C#N)cc1)C(C)=O
inactive: dose: 25.0 mg/kg/injection, schedule: Q04DX003 (ip), vehicle: Klucel (hydroxypropylcellulose) (HPC) 94 % of control | dose: 50.0 mg/kg/injection, schedule: Q04DX003 (ip), vehicle: Klucel (hydroxypropylcellulose) (HPC) 100 % of control | dose: 100.0 mg/kg/injection, schedule: Q04DX003 (ip), vehicle: Klucel (hydroxypropylcellulose) (HPC) 99 % of control | dose: 200.0 mg/kg/injection, schedule: Q04DX003 (ip), vehicle: Klucel (hydroxypropylcellulose) (HPC) 100 % of control | dose: 400.0 mg/kg/injection, schedule: Q04DX003 (ip), vehicle: Klucel (hydroxypropylcellulose) (HPC) 111 % of control

Cn1c(N)c(N=Nc2ccccc2)c(=O)[nH]c1=O
inactive: [1] 100 % of control | [2] 102 % of control | [3] 90 % of control

CC(=O)N(CCN(Cc1ccc(Oc2ccc([N+](=O)[O-])cc2[N+](=O)[O-])cc1)C(C)=O)CCN(Cc1ccc(Oc2ccc([N+](=O)[O-])cc2[N+](=O)[O-])cc1)C(C)=O
inactive: dose: 25.0 mg/kg/injection, schedule: Q01DX009 (ip), vehicle: other 94 % of control | dose: 50.0 mg/kg/injection, schedule: Q01DX009 (ip), vehicle: other 103 % of control | dose: 100.0 mg/kg/injection, schedule: Q01DX009 (ip), vehicle: other 100 % of control | dose: 200.0 mg/kg/injection, schedule: Q01DX009 (ip), vehicle: other 94 % of control | dose: 400.0 mg/kg/injection, schedule: Q01DX009 (ip), vehicle: other 103 % of control

CCOC(=O)NC1=C(N2CC2C)C(=O)C(NC(=O)OCC)=C(N2CC2C)C1=O (stereo not given)
inactive: dose: 3.12 mg/kg/injection, schedule: Q01DX001 (ip), vehicle: Klucel (hydroxypropylcellulose) (HPC) 123 % of control | dose: 12.5 mg/kg/injection, schedule: Q01DX001 (ip), vehicle: Klucel (hydroxypropylcellulose) (HPC) 113 % of control

c1coc(NC2CCCCC2)n1
inactive: [1] 90 % of control | [2] 95 % of control | [3] 95 % of control

O=C1CN(Cc2ccccc2)CC(=O)N2CCCN12
inactive: dose: 50.0 mg/kg/injection, schedule: Q01DX005 (ip), vehicle: saline with Tween-80 101 % of control | dose: 100.0 mg/kg/injection, schedule: Q01DX005 (ip), vehicle: saline with Tween-80 90 % of control | dose: 200.0 mg/kg/injection, schedule: Q01DX005 (ip), vehicle: saline with Tween-80 92 % of control

CC1(C)C=CN2C(=O)C3=CCCN3C(=O)C2CC12Nc1ccccc1C2=O (stereo not given)
inactive: [9] 94 % of control | [10] 104 % of control | [11] 110 % of control | [8] 100 % of control

— PubChem BioAssay AID328 (DTP/NCI, 2004)
